According to PMC5218480 (PLoS ONE, 2017):

System: MV-4-11 cells
Assay: Gene expression microarray analysis (Affymetrix PrimeView) and GSEA
Assay type: cell-based, human
Set-up: RFU PODN (11730768_x_at) / Fold change /veh PODN (11730768_x_at) / RFU LINC00158 (11744669_a_at) / Fold change /veh LINC00158 (11744669_a_at) / RFU DUSP10 (11751237_a_at) / Fold change /veh DUSP10 (11751237_a_at) / RFU ID3 (11757404_x_at) / Fold change /veh ID3 (11757404_x_at) / RFU PLEKHG5 (11737974_s_at) / Fold change /veh PLEKHG5 (11737974_s_at) / RFU LRRC4B (11730491_at) / Fold change /veh LRRC4B (11730491_at) / RFU GIMAP4 (11747438_a_at) / Fold change /veh GIMAP4 (11747438_a_at) / RFU KRT8 (11758183_x_at) / Fold change /veh KRT8 (11758183_x_at) / RFU CNN1 (11734310_a_at) / Fold change /veh CNN1 (11734310_a_at) / RFU VPS37D (11726825_at) / Fold change /veh VPS37D (11726825_at) / RFU C10orf10 (11716522_x_at) / Fold change /veh C10orf10 (11716522_x_at) / RFU KIR2DL2 /// KIR2DL4 /// KIR2DL5A /// KIR2DL5B /// KIR2DS1 /// KIR2DS2 /// KIR2DS3 /// KIR2DS4 /// KIR3DL3 /// KIR3DL3 /// KIR3DS1 (11738374_at) / Fold change /veh KIR2DL2 /// KIR2DL4 /// KIR2DL5A /// KIR2DL5B /// KIR2DS1 /// KIR2DS2 /// KIR2DS3 /// KIR2DS4 /// KIR3DL3 /// KIR3DL3 /// KIR3DS1 (11738374_at) / RFU C1QL1 (11718748_at) / Fold change /veh C1QL1 (11718748_at) / RFU TMPRSS4 (11747572_a_at) / Fold change /veh TMPRSS4 (11747572_a_at) / RFU HAMP (11756126_x_at) / Fold change /veh HAMP (11756126_x_at) / RFU RNFT2 (11725882_a_at) / Fold change /veh RNFT2 (11725882_a_at) / RFU NR4A2 (11747474_a_at) / Fold change /veh NR4A2 (11747474_a_at) / RFU ABCC12 (11746883_a_at) / Fold change /veh ABCC12 (11746883_a_at) / RFU TMEM136 (11760407_x_at) / Fold change /veh TMEM136 (11760407_x_at) / RFU CLDN22 /// WWC2 (11732394_at) / Fold change /veh CLDN22 /// WWC2 (11732394_at) / RFU HLA-DPB1 (11760878_x_at) / Fold change /veh HLA-DPB1 (11760878_x_at) / RFU SPINT1 (11716480_a_at) / Fold change /veh SPINT1 (11716480_a_at) / RFU GAP43 (11754022_s_at) / Fold change /veh GAP43 (11754022_s_at) / RFU A4GNT (11735810_at) / Fold change /veh A4GNT (11735810_at) / RFU PRB3 (11715151_x_at) / Fold change /veh PRB3 (11715151_x_at) / RFU TUBB4B (11761932_at) / Fold change /veh TUBB4B (11761932_at) / RFU CAPN14 (11732068_a_at) / Fold change /veh CAPN14 (11732068_a_at) / RFU TMCC2 (11721928_a_at) / Fold change /veh TMCC2 (11721928_a_at) / RFU IRGQ (11745062_a_at) / Fold change /veh IRGQ (11745062_a_at) / RFU FAM174B (11720279_a_at) / Fold change /veh FAM174B (11720279_a_at) / RFU TMPRSS4 (11748680_a_at) / Fold change /veh TMPRSS4 (11748680_a_at) / RFU FAM212B (11763350_a_at) / Fold change /veh FAM212B (11763350_a_at) / RFU PLEKHG5 (11743358_a_at) / Fold change /veh PLEKHG5 (11743358_a_at) / RFU ZSCAN30 (11745921_a_at) / Fold change /veh ZSCAN30 (11745921_a_at) / RFU CMKLR1 (11741424_a_at) / Fold change /veh CMKLR1 (11741424_a_at) / RFU LOC101060620 /// MAPK8IP1 (11723275_at) / Fold change /veh LOC101060620 /// MAPK8IP1 (11723275_at) / RFU SPTSSB (11747773_x_at) / Fold change /veh SPTSSB (11747773_x_at) / RFU PRSS12 (11739890_at) / Fold change /veh PRSS12 (11739890_at) / RFU BIN1 (11741810_x_at) / Fold change /veh BIN1 (11741810_x_at) / RFU WNT11 (11732464_a_at) / Fold change /veh WNT11 (11732464_a_at) / RFU C10orf10 (11716521_a_at) / Fold change /veh C10orf10 (11716521_a_at) / RFU C5orf56 (11738089_at) / Fold change /veh C5orf56 (11738089_at) / RFU CYB561 (11721691_x_at) / Fold change /veh CYB561 (11721691_x_at) / RFU ANKRD19P (11752326_a_at) / Fold change /veh ANKRD19P (11752326_a_at) / RFU OR2T12 /// OR2T33 /// OR2T8 (11738714_s_at) / Fold change /veh OR2T12 /// OR2T33 /// OR2T8 (11738714_s_at) / RFU VCAN (11748164_a_at) / Fold change /veh VCAN (11748164_a_at) / RFU JSRP1 (11732532_at) / Fold change /veh JSRP1 (11732532_at) / RFU KRTAP10-11 (11738290_x_at) / Fold change /veh KRTAP10-11 (11738290_x_at) / RFU MYO3A (11730013_a_at) / Fold change /veh MYO3A (11730013_a_at) / RFU EBF3 (11725865_a_at) / Fold change /veh EBF3 (11725865_a_at) / RFU CAMK2N1 (11719241_x_at) / Fold change /veh CAMK2N1 (11719241_x_at) / RFU C5orf56 (11738088_a_at) / Fold change /veh C5orf56 (11738088_a_at) / RFU OLFML3 (11715873_a_at) / Fold change /veh OLFML3 (11715873_a_at) / RFU LOC100653217 /// NTM (11731650_a_at) / Fold change /veh LOC100653217 /// NTM (11731650_a_at) / RFU MAPK11 (11762145_a_at) / Fold change /veh MAPK11 (11762145_a_at) / RFU FIZ1 (11724087_x_at) / Fold change /veh FIZ1 (11724087_x_at) / RFU OASL (11726364_x_at) / Fold change /veh OASL (11726364_x_at) / RFU SOX15 (11748057_x_at) / Fold change /veh SOX15 (11748057_x_at) / RFU CD79A (11719716_a_at) / Fold change /veh CD79A (11719716_a_at) / RFU HIST1H1D (11736915_at) / Fold change /veh HIST1H1D (11736915_at) / RFU CASKIN2 (11723855_a_at) / Fold change /veh CASKIN2 (11723855_a_at) / RFU LOC730098 (11760151_x_at) / Fold change /veh LOC730098 (11760151_x_at) / RFU OR4N2 (11742367_at) / Fold change /veh OR4N2 (11742367_at) / RFU PRRT2 (11749266_a_at) / Fold change /veh PRRT2 (11749266_a_at) / RFU SNX32 (11753110_a_at) / Fold change /veh SNX32 (11753110_a_at) / RFU CDHR5 (11726645_a_at) / Fold change /veh CDHR5 (11726645_a_at) / RFU RCAN1 (11760418_a_at) / Fold change /veh RCAN1 (11760418_a_at) / RFU FAM167A (11723789_a_at) / Fold change /veh FAM167A (11723789_a_at) / RFU FAM26E (11764081_at) / Fold change /veh FAM26E (11764081_at) / RFU ISYNA1 (11749810_s_at) / Fold change /veh ISYNA1 (11749810_s_at) / RFU ACY1 (11761880_at) / Fold change /veh ACY1 (11761880_at) / RFU 11764098_at / Fold change /veh 11764098_at / RFU SAMD14 (11745864_x_at) / Fold change /veh SAMD14 (11745864_x_at) / RFU NPB (11741838_a_at) / Fold change /veh NPB (11741838_a_at) / RFU TMPRSS6 (11731388_a_at) / Fold change /veh TMPRSS6 (11731388_a_at) / RFU KRTAP10-2 (11738614_at) / Fold change /veh KRTAP10-2 (11738614_at) / RFU ARHGAP8 /// PRR5-ARHGAP8 (11727945_x_at) / Fold change /veh ARHGAP8 /// PRR5-ARHGAP8 (11727945_x_at) / RFU KRTAP5-7 /// NADSYN1 (11734609_at) / Fold change /veh KRTAP5-7 /// NADSYN1 (11734609_at) / RFU RASL12 (11751679_a_at) / Fold change /veh RASL12 (11751679_a_at) / RFU CDKN2B (11736163_a_at) / Fold change /veh CDKN2B (11736163_a_at) / RFU PRF1 (11729649_at) / Fold change /veh PRF1 (11729649_at) / RFU, ZNF638 /// ZNF638-IT1 / Fold change vs veh, ZNF638 /// ZNF638-IT1 / RFU, PANK3 / Fold change vs veh, PANK3 / RFU, SH3YL1 / Fold change vs veh, SH3YL1 / RFU, ZEB2 / Fold change vs veh, ZEB2 / RFU, NRIP1 / Fold change vs veh, NRIP1 / RFU, PTTG1IP / Fold change vs veh, PTTG1IP / RFU, CAPN2 / Fold change vs veh, CAPN2 / RFU, MED14 / Fold change vs veh, MED14 / RFU, SNORA58 / Fold change vs veh, SNORA58 / RFU, C1orf63 / Fold change vs veh, C1orf63 / RFU, LRRFIP1 / Fold change vs veh, LRRFIP1 / RFU, NDUFAF7 / Fold change vs veh, NDUFAF7 / RFU, SLC12A2 / Fold change vs veh, SLC12A2 / RFU, IBTK / Fold change vs veh, IBTK / RFU, ESF1 / Fold change vs veh, ESF1 / Fold change vs veh, TMEM50B / RFU, TAOK1 / Fold change vs veh, TAOK1 / RFU, ACBD3 / Fold change vs veh, ACBD3 / RFU, TMA16 / Fold change vs veh, TMA16 / RFU, RWDD3 / Fold change vs veh, RWDD3 / RFU, BCAT1 / Fold change vs veh, BCAT1 / RFU, EDEM3 / Fold change vs veh, EDEM3 / RFU, TMEM33 / Fold change vs veh, TMEM33 / RFU, WDR75 / Fold change vs veh, WDR75 / RFU, AHCTF1 / Fold change vs veh, AHCTF1 / RFU, TFRC / Fold change vs veh, TFRC / RFU, ZDHHC17 / Fold change vs veh, ZDHHC17 / RFU, NOM1 / Fold change vs veh, NOM1 / RFU, ARL8B / Fold change vs veh, ARL8B / RFU, ZBTB11 / Fold change vs veh, ZBTB11 / RFU, TAMM41 / Fold change vs veh, TAMM41 / RFU, KIAA1704 /// LOC100996395 / Fold change vs veh, KIAA1704 /// LOC100996395 / RFU, ING1 / Fold change vs veh, ING1 / RFU, TRMT61B / Fold change vs veh, TRMT61B / RFU, FUBP3 / Fold change vs veh, FUBP3 / RFU, TP53 / Fold change vs veh, TP53 / RFU, TNKS2 / Fold change vs veh, TNKS2 / RFU, ZFP14 / Fold change vs veh, ZFP14 / RFU, ACTR2 / Fold change vs veh, ACTR2 / RFU, PPP3R1 / Fold change vs veh, PPP3R1 / RFU, PIK3R1 / Fold change vs veh, PIK3R1 / RFU, HNRNPA1 / Fold change vs veh, HNRNPA1 / RFU, RNF170 / Fold change vs veh, RNF170 / RFU, ZNF28 / Fold change vs veh, ZNF28 / RFU, RNGTT / Fold change vs veh, RNGTT / RFU, OGT / Fold change vs veh, OGT / RFU, BRD1 / Fold change vs veh, BRD1 / RFU, MARS / Fold change vs veh, MARS / RFU, ZNF655 / Fold change vs veh, ZNF655 / RFU, FAHD1 / Fold change vs veh, FAHD1 / RFU, BDP1 / Fold change vs veh, BDP1 / RFU, LRRCC1 / Fold change vs veh, LRRCC1 / RFU, ARID1A / Fold change vs veh, ARID1A / RFU, ZNF146 / Fold change vs veh, ZNF146 / RFU, ZNF330 / Fold change vs veh, ZNF330 / RFU, GPN3 / Fold change vs veh, GPN3 / RFU, C9orf123 / Fold change vs veh, C9orf123 / RFU, N4BP2L2 / Fold change vs veh, N4BP2L2 / RFU, ARFIP1 / Fold change vs veh, ARFIP1 / RFU, FAM179B / Fold change vs veh, FAM179B / RFU, BCL10 / Fold change vs veh, BCL10 / RFU, UHRF1BP1L / Fold change vs veh, UHRF1BP1L / RFU, BET1 / Fold change vs veh, BET1 / RFU, CNOT2 / Fold change vs veh, CNOT2 / RFU, ZNF268 / Fold change vs veh, ZNF268 / Fold change vs veh, ZNF507 / RFU, DGCR2 / Fold change vs veh, DGCR2 / RFU, WDSUB1 / Fold change vs veh, WDSUB1 / Fold change vs veh, HSP90B1 /// MIR3652 / RFU, ADSS / Fold change vs veh, ADSS / RFU, GK / Fold change vs veh, GK / RFU, ZNF148 / Fold change vs veh, ZNF148 / RFU, TAF9 / Fold change vs veh, TAF9 / RFU, SLC1A5 / Fold change vs veh, SLC1A5 / RFU, SLMO2 / Fold change vs veh, SLMO2 / RFU, ABCC4 / Fold change vs veh, ABCC4 / RFU, LOC101060439 /// RAP1B / Fold change vs veh, LOC101060439 /// RAP1B / RFU, RFX7 / Fold change vs veh, RFX7 / RFU, GTPBP10 / Fold change vs veh, GTPBP10 / RFU, CNEP1R1 / Fold change vs veh, CNEP1R1 / RFU, BIVM-ERCC5 /// ERCC5 / Fold change vs veh, BIVM-ERCC5 /// ERCC5 / RFU, ILF3 / Fold change vs veh, ILF3 / RFU 11762660_at / Fold change /veh 11762660_at / RFU VCAN (11757783_s_at) / Fold change /veh VCAN (11757783_s_at) / RFU DDX43 (11728927_at) / Fold change /veh DDX43 (11728927_at) / RFU KRT8 (11758188_x_at) / Fold change /veh KRT8 (11758188_x_at) / RFU NKD1 (11759106_at) / Fold change /veh NKD1 (11759106_at) / RFU SRD5A1 (11742802_a_at) / Fold change /veh SRD5A1 (11742802_a_at) / RFU TPSAB1 /// TPSB2 (11721975_s_at) / Fold change /veh TPSAB1 /// TPSB2 (11721975_s_at) / RFU GSTM3 (11746129_a_at) / Fold change /veh GSTM3 (11746129_a_at) / RFU IL23R (11737362_x_at) / Fold change /veh IL23R (11737362_x_at) / RFU TMEM51 (11727254_a_at) / Fold change /veh TMEM51 (11727254_a_at) / RFU PIWIL2 (11732686_x_at) / Fold change /veh PIWIL2 (11732686_x_at) / RFU ORM1 (11744905_x_at) / Fold change /veh ORM1 (11744905_x_at) / RFU CCDC152 (11743942_at) / Fold change /veh CCDC152 (11743942_at) / RFU ECM1 (11717891_a_at) / Fold change /veh ECM1 (11717891_a_at) / RFU IL23R (11748794_a_at) / Fold change /veh IL23R (11748794_a_at) / RFU TNFAIP8L3 (11732012_x_at) / Fold change /veh TNFAIP8L3 (11732012_x_at) / RFU MBOAT4 (11741988_at) / Fold change /veh MBOAT4 (11741988_at) / RFU 11764193_at / Fold change /veh 11764193_at / RFU TMEM53 (11763286_at) / Fold change /veh TMEM53 (11763286_at) / RFU MAGEB2 (11727129_at) / Fold change /veh MAGEB2 (11727129_at) / RFU TMEM200A (11744735_a_at) / Fold change /veh TMEM200A (11744735_a_at) / RFU CCDC152 (11751479_a_at) / Fold change /veh CCDC152 (11751479_a_at) / RFU FAM211A (11726209_a_at) / Fold change /veh FAM211A (11726209_a_at) / RFU RGS16 (11746705_a_at) / Fold change /veh RGS16 (11746705_a_at) / RFU VCAN (11755009_s_at) / Fold change /veh VCAN (11755009_s_at) / RFU RHOB (11743442_s_at) / Fold change /veh RHOB (11743442_s_at) / RFU RGS16 (11720943_a_at) / Fold change /veh RGS16 (11720943_a_at) / RFU RGS16 (11720944_at) / Fold change /veh RGS16 (11720944_at) / RFU, VPS4B / Fold change vs veh, VPS4B / RFU, CREB1 / Fold change vs veh, CREB1 / RFU, DNAJC13 / Fold change vs veh, DNAJC13 / RFU, GNAQ / Fold change vs veh, GNAQ / RFU, CDK5R1 / Fold change vs veh, CDK5R1 / RFU, ZRANB3 / Fold change vs veh, ZRANB3 / RFU, CUL4A / Fold change vs veh, CUL4A / RFU, CCNY / Fold change vs veh, CCNY / RFU, UFL1 / Fold change vs veh, UFL1 / RFU, COG3 / Fold change vs veh, COG3 / RFU, DIAPH2 / Fold change vs veh, DIAPH2 / RFU, SKA2 / Fold change vs veh, SKA2 / RFU, AFF3 / Fold change vs veh, AFF3 / RFU, LMF1 / Fold change vs veh, LMF1 / RFU, IPO11 / Fold change vs veh, IPO11 / RFU, DFFB / Fold change vs veh, DFFB / RFU, FOXP1 / Fold change vs veh, FOXP1 / RFU, CARD8 / Fold change vs veh, CARD8 / RFU, STRN3 / Fold change vs veh, STRN3 / RFU, ADK / Fold change vs veh, ADK / RFU, RASSF2 / Fold change vs veh, RASSF2 / RFU, WIPF1 / Fold change vs veh, WIPF1 / RFU, LARP1B / Fold change vs veh, LARP1B / RFU, RASA1 / Fold change vs veh, RASA1 / RFU, RB1 / Fold change vs veh, RB1 / RFU, PPFIA1 / Fold change vs veh, PPFIA1 / RFU, MAT2A / Fold change vs veh, MAT2A / RFU, CCT5 / Fold change vs veh, CCT5 / RFU, WDR92 / Fold change vs veh, WDR92 / RFU, CUX1 / Fold change vs veh, CUX1 / RFU, TTC7A / Fold change vs veh, TTC7A / RFU, TMEM135 / Fold change vs veh, TMEM135 / RFU, DEPTOR / Fold change vs veh, DEPTOR / RFU, CPM / Fold change vs veh, CPM / RFU, DNAJB6 / Fold change vs veh, DNAJB6 / RFU, CACNA2D3 / Fold change vs veh, CACNA2D3 / RFU, DTX4 / Fold change vs veh, DTX4 / RFU, TFCP2 / Fold change vs veh, TFCP2 / RFU, GMCL1 /// GMCL1P1 / Fold change vs veh, GMCL1 /// GMCL1P1 / RFU, AEBP2 / Fold change vs veh, AEBP2 / RFU, SNHG1 /// SNORD22 /// SNORD25 /// SNORD26 /// SNORD27 /// SNORD28 /// SNORD29 /// SNORD31 / Fold change vs veh, SNHG1 /// SNORD22 /// SNORD25 /// SNORD26 /// SNORD27 /// SNORD28 /// SNORD29 /// SNORD31 / Fold change (Aza/veh), C12orf56 (ProbeSet 11735607_a_at) / Fold change (ACY-1035/veh), C12orf56 (ProbeSet 11735607_a_at) / Fold change (Aza/veh), FGFR1OP (ProbeSet 11751329_s_at) / Fold change (ACY-1035/veh), FGFR1OP (ProbeSet 11751329_s_at) / Fold change (Aza/veh), VPS36 (ProbeSet 11739960_a_at) / Fold change (ACY-1035/veh), VPS36 (ProbeSet 11739960_a_at) / RFU SYPL1 (11715823_x_at) / Fold change /veh SYPL1 (11715823_x_at) / RFU IGFBP7 (11715501_s_at) / Fold change /veh IGFBP7 (11715501_s_at) / RFU REEP3 (11722064_at) / Fold change /veh REEP3 (11722064_at) / RFU IGLL1 (11728026_x_at) / Fold change /veh IGLL1 (11728026_x_at): dose or concentration left out as unconfirmed
Conditions: ProbeSet 11755070_a_at; LIST D

SMILES: Nc1ccc(-c2cccs2)cc1NC(=O)c1ccc2c(c1)cc(C1CC1)n2CCN1CCOCC1 [ACY-1035]
- RFU, CARD8: 173.18 RFU
